Experimental data reported in US20210371817A1, “COMPOSITIONS AND METHODS FOR PRECISE PATTERNING OF POSTERIOR NEUROECTODERM FROM HUMAN PLURIPOTENT STEM CELLS” (WISCONSIN ALUMNI RESEARCH FOUNDATION, priority 2013, published 2021).

Columns and labels:
neuromesodermal cells = assay: Pax6 and HoxD10 expression after GDF11 with or without dorsomorphin, then RA; type: cell-based, human; conditions: GDF11 present in the neuromesodermal morphogen cocktail
Excerpt: (FIG. 7A) Timeline of differentiation. (FIG. 7B) qPCR assessment of lumbar/sacral gene expression at day 12. A minimum concentration of GDF11 is required to activate HoxD10 and HoxA11. Each gene is normalized to the maximum GDF11 dose. Error bars are standard deviation calculated from duplicate reactions. (FIG. 7C) Expression of Pax6 in response to increased GDF11 concentrations. Data were collected by flow cytometry and represented as mean±standard deviation calculated from two biological replicates. Sox2 was uniformly expressed regardless of GDF11 treatment (data not shown). […] Grey histograms, IgG control; Red histograms, Pax6. Data are representative of two biological replicates. […] Percentages were quantified as HoxD10 labeling relative to DAPI-stained nuclei (>2500 total cells counted per sample). Scale bars, 100 μm
After neural tube closure in vivo, opposing gradients of TGFβ and SHH signaling produce distinct dorsal and ventral domains from which sensory neurons, interneurons, and motor neurons arise. Pax6, which has been identified as a neuroectoderm fate determinant, is expressed throughout most of the neural tube but is absent from the most dorsal and ventral domains. […] The ability of GDF11 to control rostral/caudal patterning is mediated by signaling via ALK5 and activation of the SMAD2/3 complex. […]

NSC cultures = assay: Hox protein expression in NSC cultures after RA treatment (immunocytochemistry, flow cytometry); type: cell-based, human
Protocol: Assessment of neuroectoderm or mesoderm fate transition by flow cytometry. Grey histogram, IgG control; red histogram, antigen of interest. Data are presented as mean±standard deviation calculated from two biological replicates. (FIG. 8B) For experiments in panels FIGS. 8C-8F, neuromesodermal propagation was halted by removing FGF8b/CHIR 99021/GDF11 and adding RA. Assays were conducted after 4 days of RA treatment. (FIG. 8C) HOX profiles generated after RA treatment. Each gene is normalized to its maximum expression. Error bars are standard deviation calculated from duplicate reactions. (FIG. 8D) HoxB4 and HoxD10 expression in neuroepithelial cultures after RA treatment. Scale bars, 100 m. (FIG. 8E) Purity of Sox2, Pax6, HoxB4, and HoxD10 after 4 days of RA treatment. Sox2, Pax6, and HoxB4 were quantified using flow cytometry and HoxD10 was quantified by manual counting of dissociated cells ([…]). Error bars are standard deviation calculated from at least two biological replicates. […] (FIG. 8F) Motor neuron differentiation at cervical, thoracic, and lumbar spinal cord depths, where the motor neuron precursors show region-specific patterns of FoxP1, Isl1, and Hb9 co-expression. (FIG. 8G) Neuronal maturation from cervical, thoracic, and lumbar patterned NSCs, as assessed by immunocytochemistry (top panel; DAPI (blue) is overlaid in all images; Scale bars, 20 m) and RT-PCR (50 cycles; bottom panel).
FIGS. 9A-9C (FIG. 9A) provides additional data showing that RA induces a neuroectodermal fate and halts colinear HOX activation, using the neural differentiation scheme shown in FIG. 8B and representative hindbrain cultures assessed by qPCR. (FIG. 9B) Representative hindbrain cultures assessed by immunocytochemistry. (FIG. 9C) Representative hindbrain cultures assessed by flow cytometry. All data are presented as mean±S.D. and qPCR data are normalized to the time point of maximum expression for each gene. For the hindbrain cultures, HoxB1 and HoxB4 were quantified by immunocytochemistry relative to DAPI+ nuclei, while Sox2 and Pax6 were quantified by flow cytometry. Scale bars, 100 m.
Flow cytometry. Flow cytometry was conducted as described in the Examples above. Primary antibodies against Sox2 (mouse; 1:1000; Millipore), brachyury (goat; 1:200; R&D Systems), Pax6 (mouse; 1:200; DSHB), and HoxB4 (rat; 1:50; DSHB) were utilized. Samples were run on a FACSCaliber (BD Biosciences) and data were analyzed using Cyflogic software. Positive events were quantified by gating above the top 1% of species-matched IgG controls.
Immunocytochemistry. Immunocytochemistry was conducted as previously described. […]

With “GDF11: Growth differentiation factor 11, a TGFβ family member” the “Pax6 expression after RA” value (neuromesodermal cells) was “decreased”, the “HoxD10+ cells” value (NSC cultures; RA added at 120 h of neuromesodermal propagation) was 0% and the “HoxD10+ cells” value (NSC cultures; RA added at 144 h of neuromesodermal propagation, after GDF11 treatment) was 89±2%.
